Assay results: patent US20150204851A1, “METHODS FOR IDENTIFYING DIABETES DRUGS” (Metanomics Health GmbH, priority 2012, published 2015)
Structures can show the parent of a compound that is named as a salt.

Experiments:
[1] = system: glyoxylate; experiment: Glyoxylate level in C. elegans after treatment, GC-MS; type: in vivo, Caenorhabditis elegans; details: for Effect on native/endogenous glyoxylate levels in C. elegans: single treatment: 50 mM metformin or 20 mM glyoxylate; for Ratio of glyoxylate concentrations in C. elegans, treatment/control: wild type on growth medium, 20 mM glyoxylate and/or 50 mM metformin, normalized to median of control
Description: Nematodes were harvested and extensively washed with buffer and the resulting pellet was disrupted using glass beats in combination with mechanical force. Samples were extracted with methyl-tert-butylether, methanol and extraction buffer and sonicated for 15 minutes. 50% of a mixture of water/methanol (3:1) was added, vigorously mixed and centrifuged. The polar phase was evaporated to dryness. After addition of water and a mixture of ethanol and dichlormethan, the sample was fractioned into an aqueous, polar phase and an organic, lipophilic phase. 13C-glyoxylate was added as internal standard and the extracts were derivatized in the following way: The methoximation of the carbonyl groups was carried out by reaction with methoxyamine hydrochloride (20 mg/mL in pyridine, 50 μL for 1.5 hours at 60° C.) in a tightly sealed vessel. Finally, the derivatization with 50 μL of N-methyl-N-(trimethylsilyl)-2,2,2-trifluoroacetamide (MSTFA) was carried out for 30 minutes at 60° C., again in the tightly sealed vessel. The final volume before injection into the GC was 100 μL. The GC-MS systems consist of an Agilent 6890 GC coupled to an Agilent 5973 MSD. Autosamplers were CompiPal or GCPaI from CTC.
For the analysis a usual commercial capillary separation column (30 m×0.25 mm×0.5 μm) with an arylene/poly-methyl-siloxane stationary phases was used (for example: DB-XLB, Agilent Technologies). 0.5 μL of the final volume was injected splitless and the oven temperature program was started at 70° C. and ended at 320° C. with different heating rates starting with low rates in order to achieve a sufficient chromatographic separation and number of scans for glyoxylate analysis and changing to a high heating rate after glyoxylate elution. Furthermore usual GC-MS standard conditions, for example constant flow with nominal 1 to 1.7 mL/min. and helium as the mobile phase gas and standard tune conditions were applied. Ionization was done by electron impact with 70 eV, scanning 2 characteristic mass fragments of the glyoxylate derivate and its internal standard, respectively within an appropriate time window. Scan rate was 25 scans/sec. Glyoxylate values were normalized to Total Ion Count of each sample to adjust individual deviation of sample volume. Furthermore, the data were normalized to the median of the control samples leading to ratios to control.
We tested the hypothesis that metformin suppresses glyoxylate concentration in in vivo experiments with the model worm Caenorhabditis elegans, by means of its treatment with glyoxylate and metformin separately and in combination of glyoxylate plus metformin.
The experiment included four treatment groups:
1) C. elegans, wild type (wt)—on growth medium (no treatment, control).
2) C. elegans, wt—on growth medium plus 50 mM metformin (methodology for Metformin application and doses as described in Onken & Driscoll (Onken B, Driscoll M (2010) Metformin induces a dietary restriction-like state and the oxidative stress response to extend C. elegans healthspan via AMPK, LKB1, and SKN-1. PLoS ONE 5(1): e8758.).
3) C. elegans, wt—on growth medium plus 20 mM glyoxylate.
4) C. elegans, wt—on growth medium plus 20 mM glyoxylate and 50 mM metformin.
From the GC-MS metabolite profiles, total ion count (TIC) as a measure of the absolute intensity value was calculated for each batch. Measured glyoxylate levels were then volume-normalized, using TICs.

[2] = system: glyoxylate; details: cultured human cells; Berman 2005; cited from earlier work
[3] = Mehta 2009; cited from earlier work
[4] = system: glyoxylate; experiment: Plasma glyoxylate in rats dosed 28 days by gavage, GC-MS metabolite profiling; type: in vivo, rat; details: for Ratio treatment/control, plasma glyoxylate: gavage once daily
Description: Two groups of each 5 male and female rats was dosed once daily with the indicated compounds with a different dose per group (see below) over 28 days.
Each dose group in the studies consisted of five rats per sex. Additional groups of each 15 male and 15 female animals served as controls. Before starting the treatment period, animals, which were 62-64 days old when supplied, were acclimatized to the housing and environmental conditions for 7 days. All animals of the animal population were kept under the same constant temerature (20-24±3° C.) and the same constant humidity (30-70%). The animals of the animal population were fed ad libitum. The food to be used was essentially free of chemical or microbial contaminants. Drinking water was also offered ad libitum. Accordingly, the water was free of chemical and microbial contaminants as laid down in the European Drinking Water Directive 98/83/EG. The illumination period was 12 hours light followed by 12 hours darkness (12 hours light, from 6:00 to 18:00, and 12 hours darkness, from 18:00 to 6:00). The studies were performed in an AAALAC-approved laboratory in accordance with the German Animal Welfare Act and the European Council Directive 86/609/EE. The test system was arranged according to the OECD 407 guideline for the testing of chemicals for repeated dose 28-day oral toxicity study in rodents. The test substance was dosed and administered as follows:
Metformin hydrochloride was administered by gavage (high dose group at 1 g/kg body weight, low dose group at 0.2 g/kg body weight), in drinking water containing 0.5% Carboxymethyl cellulose (Tylose CB30000) (administration volume: 10 ml/kg body weight).
In the morning of day 7, 14, and 28, blood was taken from the retroorbital venous plexus from fasted anaesthetized animals. From each animal, 1 ml of blood was collected with EDTA as anticoagulant. The samples were centrifuged for generation of plasma. All plasma samples were covered with a N2 atmosphere and then stored at −80° C. until analysis.
For mass spectrometry-based metabolite profiling analyses plasma samples were extracted and a polar and a non-polar (lipid) fraction was obtained. For GC-MS analysis, the non-polar fraction was treated with methanol under acidic conditions to yield the fatty acid methyl esters. Both fractions were further derivatized with O-methyl-hydroxyamine hydrochloride and pyridine to convert Oxo-groups to O-methyloximes and subsequently with a silylating agent before analysis.
Following comprehensive analytical validation steps, the data for each analyte were normalized against data from pool samples. These samples were run in parallel through the whole process to account for process variability. The significance of treatment group values specific for sex, treatment duration and metabolite was determined by comparing means of the treated groups to the means of the respective untreated control groups using WELCH-test and quantified with treatment ratios versus control and p-values.

[5] = system: C. elegans; details: in vivo; cited from earlier work

O=CC(=O)O [Glyoxylate, glyoxylate]
Effect on native/endogenous glyoxylate levels in C. elegans [1]: significant increase of endogenous glyoxylate | Ratio of glyoxylate concentrations in C. elegans, treatment/control [1]: 1.81

N=C(N)NN [Aminoguanidine, aminoguanidine]
Scavenging of glyoxylate, diverting it from oxalate synthesis [2]: demonstrated to scavenge glyoxylate | Order of effectiveness for glyoxal trapping, amine-containing drugs [3]: aminoguanidine>>pyridoxamine>metformin

CN(C)C(=N)N=C(N)N [Metformin, metformin]
Effect on glyoxylate concentrations in a rat model system ([4]; summary of Table 2): strongly reducing glyoxylate concentrations | Effect on glyoxylate-induced increase of endogenous glyoxylate in C. elegans ([1]; 50 mM metformin simultaneously to treatment with 20 mM glyoxylate): restored the native glyoxylate level | Effect on native/endogenous glyoxylate levels in C. elegans [1]: significantly decreased native glyoxylate levels | Ratio of glyoxylate concentrations in C. elegans, treatment/control [1]: 0.88 | Order of effectiveness for glyoxal trapping, amine-containing drugs [3]: aminoguanidine>>pyridoxamine>metformin | Effect on lifespan in C. elegans [5]: promote lifespan in C. elegans

CC(C)(S)[C@@H](N)C(=O)O [penicillamine]
Order of effectiveness for glyoxal trapping, thiol-containing drugs [3]: penicillamine>cysteine>N-acetyl-cysteine

CN(C)C(=N)N=C(N)N [Metformin hydrochloride]
Ratio treatment/control, plasma glyoxylate ([4]; High Dose 1 g/kg body weight, female rats, day 7 (f7)): 0.82 | Ratio treatment/control, plasma glyoxylate ([4]; High Dose 1 g/kg body weight, female rats, day 14 (f14)): 0.58 | Ratio treatment/control, plasma glyoxylate ([4]; High Dose 1 g/kg body weight, female rats, day 28 (f28)): 0.52 | Ratio treatment/control, plasma glyoxylate ([4]; High Dose 1 g/kg body weight, male rats, day 7 (m7)): 0.22 | Ratio treatment/control, plasma glyoxylate ([4]; High Dose 1 g/kg body weight, male rats, day 14 (m14)): 0.29 | Ratio treatment/control, plasma glyoxylate ([4]; High Dose 1 g/kg body weight, male rats, day 28 (m28)): 0.58 | Ratio treatment/control, plasma glyoxylate ([4]; Low Dose 0.2 g/kg body weight, female rats, day 7 (f7)): 1.01 | Ratio treatment/control, plasma glyoxylate ([4]; Low Dose 0.2 g/kg body weight, female rats, day 14 (f14)): 0.72 | Ratio treatment/control, plasma glyoxylate ([4]; Low Dose 0.2 g/kg body weight, female rats, day 28 (f28)): 0.64 | Ratio treatment/control, plasma glyoxylate ([4]; Low Dose 0.2 g/kg body weight, male rats, day 7 (m7)): 0.59 | Ratio treatment/control, plasma glyoxylate ([4]; Low Dose 0.2 g/kg body weight, male rats, day 14 (m14)): 0.65 | Ratio treatment/control, plasma glyoxylate ([4]; Low Dose 0.2 g/kg body weight, male rats, day 28 (m28)): 0.44

CC(=O)N[C@@H](CS)C(=O)O [N-acetyl-cysteine]
Order of effectiveness for glyoxal trapping, thiol-containing drugs [3]: penicillamine>cysteine>N-acetyl-cysteine

N[C@@H](CS)C(=O)O [cysteine]
Order of effectiveness for glyoxal trapping, thiol-containing drugs [3]: penicillamine>cysteine>N-acetyl-cysteine
